Test results as given in ChEMBL document CHEMBL3997852, “Discovery of Fluorine-Containing Benzoxazinyl-oxazolidinones for the Treatment of Multidrug Resistant Tuberculosis” (ACS Med Chem Lett, 2017).
Values after ≈ are worked out from the molar mass of the structure shown.

Assays:
[1] = system: Mycobacterium tuberculosis; assay: Antitubercular activity against isoniazid/rifampicin-resistant Mycobacterium tuberculosis 16892 clinical isolate after 7 days by microplate alamar blue assay; assay type: functional; details: Mycobacterium tuberculosis, 16892, 168 h
[2] = system: Mycobacterium tuberculosis; assay: Antitubercular activity against isoniazid/rifampicin/streptomycin/ethambutol/levofloxacin-resistant Mycobacterium tuberculosis 16802 clinical isolate after 7 days by microplate alamar blue assay; assay type: functional; details: Mycobacterium tuberculosis, 16802, 168 h

SMILES | MIC90 [1] [µg/mL] | MIC90 [2] [µg/mL]
O=C(NC[C@@H]1OC(=O)N2c3cc(F)c(C4=CCN(CCO)CC4)cc3OC[C@@H]12)C1CC1 | 0.5 (≈ 1.16 µM) | 1 (≈ 2.32 µM)
CC(=O)NC[C@@H]1OC(=O)N2c3cc(F)c(C4=CCN(C(=O)[C@@H](O)CO)CC4)cc3OC[C@@H]12 | 0.25 (≈ 0.556 µM) | 1 (≈ 2.23 µM)
NNC(=O)c1ccncc1 [ISONIAZID] | > 40 | 2.5 (≈ 18.2 µM)
CO[C@H]1/C=C/O[C@@]2(C)Oc3c(C)c(O)c4c(O)c(c(/C=N/N5CCN(C)CC5)c(O)c4c3C2=O)NC(=O)/C(C)=C\C=C\[C@H](C)[C@H](O)[C@@H](C)[C@@H](O)[C@@H](C)[C@H](OC(C)=O)[C@@H]1C [RIFAMPIN] | > 40 | 20 (≈ 24.3 µM)
CC(=O)NC[C@@H]1OC(=O)N2c3cc(F)c(C4=CCN(C(=O)CN)CC4)cc3OC[C@@H]12.Cl | 0.25 | 2
CC(=O)NC[C@@H]1OC(=O)N2c3cc(F)c(C4=CCN(C(=O)CO)CC4)cc3OC[C@@H]12 | 0.25 (≈ 0.596 µM) | 0.5 (≈ 1.19 µM)
CC(=O)NC[C@@H]1OC(=O)N2c3cc(F)c(C4=CCN(CCO)CC4)cc3OC[C@@H]12 | 0.5 (≈ 1.23 µM) | 2 (≈ 4.93 µM)
